Measured values from paper PMC3058535 (International Journal of Nanomedicine, 2011).

Target: integrin αvβ3 (Homo sapiens, UniProt P05106+P06756)
Experiment: Competitive ELISA vs NS–RGDfK
Assay type: binding
Settings: NS–RGDfK 0.5 OD; starting 50 μM

Compound	competition with NS–RGDfK for binding to integrin αvβ3
CC(C)(CN)CNC(=O)NCCS(=O)(=O)N[C@@H](CNC(=O)c1ccc(OCCNC2=NCCCN2)cc1)C(=O)O.Cl [IAC, 4-[2-(3,4,5,6-tetrahydropyrimidin-2-ylamino)-ethyloxy]benzoyl-2-(S)-[N-(3-aminoneopenta-1-carbamyl)]-aminoethylsulfonylamino-h-alanine hydrochloride]	did compete with NS–RGDfK for binding to the integrin
N=C(N)NCCC[C@@H]1NC(=O)[C@H](CCCCN)NC(=O)[C@@H](Cc2ccccc2)NC(=O)[C@H](CC(=O)O)NC(=O)CNC1=O [RGDfK, cyclo(Arg-Gly-Asp-D-Phe-Lys)]	did compete with NS–RGDfK for binding to the integrin
cyclo-(Arg-Ala-Asp- D-Phe-Lys) (head to tail) [RADfK]	did not have any detectable competition with NS–RGDfK
